Measured values taken from publication PMC10574532, “Revisiting Supersaturation of a Biopharmaceutical Classification System IIB Drug: Evaluation via a Multi-Cup Dissolution Approach and Molecular Dynamic Simulation” (Molecules, 2023).
Values after ≈ are worked out from the molar mass of the structure shown.

Experiments:
[1] = IVIVC prediction based on USP II in vitro absorption data; set-up: species or system Male Sprague Dawley rats; details: predicted through IVIVC from USP II
Experimental: (§1) The in vitro–in vivo correlation (IVIVC) was performed using Phoenix 8.1 IVIVC Toolkit (Certara, Princeton, NJ, USA). […] Double Weibull Dissolution Model was selected for fitting both dissolution data from the absorptive phase of DGIM and USP II. The absorption data were obtained via deconvolution analysis of the drug plasma concentration–time curves. The reference formulation for deconvolution to estimate oral absorption was based on the in vivo data of the i.v. group. Additionally, both control group and PVPVA group’s in vitro data were used to establish a correlation between dissolved fraction and absorbed fraction, while the HPMC group’s data served as external validation. The maximum number of unit impulse response exponentials defaulted to three. With WinNonlin Generated Initial Parameter and Winnonlin Bounds, the best correlation model was selected according to the lowest AIC. Validation parameters included AUClast calculated with linear trapezoidal method along with linear interpolation averaging as mean values were adopted. The process of prediction followed the same parameters above. The prediction error (PE) was evaluated following the FDA’s guidance.

In vivo pharmacokinetics = test: In vivo pharmacokinetics; set-up: species or system Male Sprague Dawley rats; details: plasma, rat
Experimental: The animal study was conducted in accordance with the National Research Council’s Guide for the Care and Use of Laboratory Animals and approved by the Ethics Committee of Chengdu University of Traditional Chinese Medicine (Approval Code: 2021-76). All procedures were performed in compliance with relevant regulations and guidelines. Male Sprague Dawley rats weighing 180–220 g were fasted overnight (12 h) with free access to water, then randomly assigned to 4 groups (n = 6). […] Approximately 50 μL of blood samples were collected into EDTA-K2-treated Eppendorf tubes at time points ranging from 0.083, 0.25, 0.5, 1, 2, 4, and 6 to 10 h after dosing. The blood samples were centrifuged at 2000× g and 4 °C for 10 min, followed by collection and storage of the supernatant plasma at −20 °C until analysis. […] A protein precipitation method was employed to pretreat 10 μL plasma with 430 μL acetonitrile, 50 μL internal standard solution (gefitinib), and 10 μL mobile phase. After centrifugation at 10,000× g for 10 min at 4 °C, the supernatant was injected into the apparatus and then separated by a Thermo Hypersil C18 chromatographic column (3 μm, 2.1 mm × 50 mm) at 40 °C. […] Phoenix 8.1 WinNonlin Toolkit (Certara, Princeton, NJ, USA) was employed to conduct the non-compartment model of pharmacokinetic analysis.

[2] = IVIVC prediction based on DGIM in vitro absorption data; set-up: species or system Male Sprague Dawley rats; details: predicted through IVIVC from DGIM
Experimental: as §1

[3] = phosphate buffer ref 19; cited from earlier work
[4] = pH-dependent equilibrium solubility of ketoconazole in biorelevant fluids (FaSSIF) with or without precipitation inhibitor; type: physicochemical; details: modified Henderson-Hasselbalch fit, 37 °C
Experimental: Specifically, FaSSIF was prepared with different proportions of 0.2 mol/L disodium hydrogen phosphate (Na2HPO4) solution and 0.1 mol/L citric acid (C6H8O7) solution, with commercial standard FaSSIF powder. […] The final pH of each solution was measured before centrifugation at 10,000× g for 10 min at 37 °C. […] A sample volume of 10 μL was injected and subsequently separated on a Kromasil C18 column (5 μm, 4.6 × 250 mm) maintained at a temperature of 30 °C. The mobile phase consisted of a modified phosphoric acid solution containing 10 mM KH2PO4 in water (pH adjusted to 3.0), along with acetonitrile in a ratio of 50:50 (v/v). The flow rate employed was set at 1 mL/min while detection occurred at a wavelength of 254 nm.

[5] = Supersaturation-precipitation and absorption in the dynamic gastrointestinal model (DGIM); type: physicochemical
Experimental: The DGIM is achieved through a system consisting of 3 dissolution cups, which represent stomach, duodenum, and jejunum, respectively, filled with corresponding biorelevant fluid. N-octanol serves as the absorptive phase. The pumps facilitate fluid transfer, as depicted by arrows in Figure 9. In situ drug concentration is determined using fiber optical probes, and dynamic pH value of the aqueous fluid is monitored by pH electrodes. The parameters of DGIM can be adjusted to meet some special physiological conditions.
In this study, most of the parameters were based on the GIS proposed by Hens et al.. The pH values in the three cups were adjusted to 2.0, 5.9, and 6.1, respectively, to simulate the physiological digestive fluid in the stomach, duodenum, and jejunum of the fasted rats. […] The secretions used were biorelevant fluids that had been concentrated four times and pumped at a rate of 1 mL/min. Considering an average gastric half-emptying time ( th ) of approximately eight minutes, pump A transported gastric fluid into the duodenal cup at this first-order rate. Ensuring that the volume of biorelevant fluid in the duodenal cup was maintained at a constant level of 50 mL, any excess fluid was transported to the jejunal cup through pump B. Therefore, we can represent the rates va for pump A and vb for pump B at time t using following equations:(5) va=ln2×Vg,0×exp−ln2×t/th+1 (6) vb=va+1
The pump rate was regulated by a mono-chip computer, which was programmed to dynamically adjust the rate every second in accordance with first-order kinetics. […] The pumps worked until 40 min because, at that time, the solution in the gastric cup was less than 10 mL. However, the experiment continued for 3 h. The paddles were stirred at a rate of 50 rpm. All the cups were in a water bath at 37 °C.
Fiber optic probes with a 1 mm tip were connected to the instrument and employed for the detection of the 270–275 nm wavelength band. This detection specifically targeted the area under the curve (AUC) of the second derivatized absorbance curves. Calibration was performed using the accumulated addition method. The standard curves encompassed a wide concentration range in the dissolution process while ensuring linearity with an r^2 > 0.999.

[6] = aqueous phase of the duodenal cup

CC(=O)N1CCN(c2ccc(OCC3COC(Cn4ccnc4)(c4ccc(Cl)cc4Cl)O3)cc2)CC1 (centres unmarked) [ketoconazole, Ketoconazole]
AUC, Prediction [1]: 108,727 h·ng·mL^−1 | Cmax, Prediction [1]: 45,702 ng·mL^−1 | bioavailability (In vivo pharmacokinetics; male, Sprague Dawley, oral 10 mg/kg vs i.v. 2.5 mg/kg, read-out: absolute bioavailability): 70% | AUC (In vivo pharmacokinetics; male, Sprague Dawley, po, 10 mg/kg, read-out: AUC, Observation): 113 µg·h/mL | Cmax (In vivo pharmacokinetics; male, Sprague Dawley, po, 10 mg/kg, read-out: Cmax, Observation): 41300 ng/mL | AUC, Observation (In vivo pharmacokinetics; oral 10 mg/kg ketoconazole): 112,853 h·ng·mL^−1 | Cmax, Observation (In vivo pharmacokinetics; oral 10 mg/kg ketoconazole): 41,300 ng·mL^−1 | AUC, Prediction [2]: 114,652 h·ng·mL^−1 | Cmax, Prediction [2]: 45,529 ng·mL^−1 | pKa, reported value [3]: 6.5 | pKa ([4]; FaSSIF (biorelevant fluid), read-out: pKa of the fitted pH-solubility function): 6.32 | solubility at 24 h ([4]; FaSSIF, read-out: CU (concentration of unionized form) of the fitted pH-solubility function): 7.88 µg/mL (≈ 14.8 µM) | DSAUC (area under the degree of supersaturation over time curve) ([5]; Duodenal): 3.715 | DSAUC (area under the degree of supersaturation over time curve) ([5]; Jejunal): 5.452 | major precipitation time [5, 6]: 19 min | maximum concentration of ketoconazole [5, 6]: 1049 µg/mL | maximum concentration of ketoconazole ([5]; jejunal aqueous phase): 282 µg/mL
